What was measured:
DYRK1B = target: T1, DYRK1B (Homo sapiens, UniProt Q9Y463); experiment: Kinase inhibition profile, KINOMEscan 11-point dose response; type: binding; conditions: for IC50: 11-point 3-fold serial dilution; for Ki: by Cheng-Prusoff equation
T1 construct: purchased Eurofins DiscoverX Corporation

CK1δ = target: T2, CK1δ (Homo sapiens, UniProt P48730); experiment: as above; type: binding; conditions: for IC50: 11-point 3-fold serial dilution; for Ki: by Cheng-Prusoff equation
T2 construct: purchased Eurofins DiscoverX Corporation
T2 sequence (P48730 whole entry): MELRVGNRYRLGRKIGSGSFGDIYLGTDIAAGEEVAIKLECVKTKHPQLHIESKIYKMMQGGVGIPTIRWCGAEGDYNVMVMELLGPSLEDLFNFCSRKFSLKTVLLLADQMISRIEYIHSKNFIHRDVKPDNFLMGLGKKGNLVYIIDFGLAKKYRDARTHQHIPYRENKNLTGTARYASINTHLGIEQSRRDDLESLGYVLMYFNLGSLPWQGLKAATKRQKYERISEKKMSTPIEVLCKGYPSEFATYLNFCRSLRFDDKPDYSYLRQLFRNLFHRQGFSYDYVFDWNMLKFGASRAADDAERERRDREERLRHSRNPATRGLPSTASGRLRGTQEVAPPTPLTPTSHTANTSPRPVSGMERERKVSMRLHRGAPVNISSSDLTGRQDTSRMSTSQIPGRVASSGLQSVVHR

HCT116 = experiment: SRB cell proliferation inhibition assay; type: cell-based; conditions: HCT-116, human colon cancer cells, 72 h
Description: (§1) Human lung cancer cells (A549), colorectal cancer (HCT116) cells, breast cancer cells (MDA-MB-231), liver cancer cells (SK-HEP-1), and prostate cancer cells (PC-3) were purchased from the American Type Culture Collection (Manassas, VA, USA). Human gastric cancer cells (SNU-638) were purchased from the Korean Cell Line Bank (Seoul, Korea). Cells were cultured in medium (Dulbecco’s modified Eagle’s medium for MDA-MB-231 and SK-HEP-1 cells; Roswell Park Memorial Institute 1640 for A549, HCT116, SNU-638, PC-3 cells) supplemented with penicillin-streptomycin and 10% fetal bovine serum at 37 °C in a humidified incubator with 5% carbon dioxide. Cells were seeded at a density of 4–7 × 10^4 cells/mL in 96-well culture plates, and then treated with indicated compounds for 72 h. At the end of the experiment, cells were fixed with 10% trichloroacetic acid (TCA) solution and subjected to sulforhodamine B (SRB) assay to determine cell proliferation. The percentage of cell proliferation was calculated with the following formula:Cell proliferation (%) = 100 × [(A treated − A zero day)/(A control − A zero day)], where A is the average absorbance. The IC50 values were calculated through non-linear regression analysis using TableCurve 2D v5.01 (Systat Software Inc., San Jose, CA, USA). All experiments were performed in triplicate and data shown are representative of two or three independent experiments.

MDA-MB-231 = experiment: SRB cell proliferation inhibition assay; type: cell-based; conditions: human breast cancer cells, 72 h
Description: as §1

PC-3 = experiment: SRB cell proliferation inhibition assay; type: cell-based; conditions: human prostate cancer cells, 72 h
Description: as §1

SK-HEP-1 = experiment: SRB cell proliferation inhibition assay; type: cell-based; conditions: SK-HEP1, human liver cancer cells, 72 h
Description: as §1

SNU638 = experiment: SRB cell proliferation inhibition assay; type: cell-based; conditions: SNU-638, human stomach cancer cells, 72 h
Description: as §1

A549 = experiment: SRB cell proliferation inhibition assay; type: cell-based; conditions: human lung cancer cells, 72 h
Description: as §1

DYRK1A = target: T3, DYRK1A (Homo sapiens, UniProt Q13627); experiment: Kinase inhibition profile, KINOMEscan 11-point dose response; type: binding; conditions: for IC50: 11-point 3-fold serial dilution; for Ki: by Cheng-Prusoff equation
T3 construct: purchased Eurofins DiscoverX Corporation

TRKA = target: T4, TRKA (Homo sapiens, UniProt P04629); experiment: as above; type: binding; conditions: for IC50: 11-point 3-fold serial dilution; for Ki: by Cheng-Prusoff equation
T4 construct: purchased Eurofins DiscoverX Corporation
T4 sequence (P04629 33-796): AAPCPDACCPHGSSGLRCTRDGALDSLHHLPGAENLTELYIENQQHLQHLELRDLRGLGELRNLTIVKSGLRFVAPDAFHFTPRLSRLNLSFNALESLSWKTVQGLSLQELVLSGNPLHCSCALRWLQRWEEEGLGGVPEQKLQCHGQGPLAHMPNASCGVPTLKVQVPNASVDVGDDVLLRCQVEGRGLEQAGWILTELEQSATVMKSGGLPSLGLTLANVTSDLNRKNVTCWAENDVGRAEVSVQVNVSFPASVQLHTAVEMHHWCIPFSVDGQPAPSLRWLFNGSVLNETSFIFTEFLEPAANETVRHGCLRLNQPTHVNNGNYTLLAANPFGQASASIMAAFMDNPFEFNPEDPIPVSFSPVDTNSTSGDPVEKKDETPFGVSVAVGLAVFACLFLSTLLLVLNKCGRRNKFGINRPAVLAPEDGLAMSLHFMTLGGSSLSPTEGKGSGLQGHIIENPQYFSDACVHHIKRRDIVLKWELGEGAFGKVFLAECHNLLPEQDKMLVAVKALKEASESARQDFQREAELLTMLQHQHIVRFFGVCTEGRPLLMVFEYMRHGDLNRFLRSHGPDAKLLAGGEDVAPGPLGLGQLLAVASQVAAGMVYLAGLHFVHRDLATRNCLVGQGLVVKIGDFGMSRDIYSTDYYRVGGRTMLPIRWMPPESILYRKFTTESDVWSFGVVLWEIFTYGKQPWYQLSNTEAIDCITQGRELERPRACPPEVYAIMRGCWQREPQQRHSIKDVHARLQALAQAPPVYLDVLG

T1 sequence (Q9Y463 whole entry): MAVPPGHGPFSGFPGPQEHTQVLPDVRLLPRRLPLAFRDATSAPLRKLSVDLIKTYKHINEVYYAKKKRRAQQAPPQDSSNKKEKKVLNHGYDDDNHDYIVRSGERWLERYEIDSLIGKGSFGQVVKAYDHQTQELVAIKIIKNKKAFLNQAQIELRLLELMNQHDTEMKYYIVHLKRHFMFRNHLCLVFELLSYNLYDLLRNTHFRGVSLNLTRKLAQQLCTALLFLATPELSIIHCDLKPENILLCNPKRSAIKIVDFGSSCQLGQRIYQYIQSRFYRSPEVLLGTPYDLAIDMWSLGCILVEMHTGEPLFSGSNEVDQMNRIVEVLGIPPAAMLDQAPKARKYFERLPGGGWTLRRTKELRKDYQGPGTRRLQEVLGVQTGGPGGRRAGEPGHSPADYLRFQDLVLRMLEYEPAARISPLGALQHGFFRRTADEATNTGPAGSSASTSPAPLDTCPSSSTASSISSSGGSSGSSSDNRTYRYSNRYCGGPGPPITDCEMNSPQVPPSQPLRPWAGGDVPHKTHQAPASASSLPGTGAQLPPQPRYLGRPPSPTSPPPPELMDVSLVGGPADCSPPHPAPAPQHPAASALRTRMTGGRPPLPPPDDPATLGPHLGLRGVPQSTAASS

Row | Compound | IC50 (DYRK1B) [nM] | IC50 (CK1δ) [nM] | Ki (CK1δ) [nM] | IC50 (HCT116) [nM] | IC50 (MDA-MB-231) [nM] | IC50 (PC-3) [nM] | IC50 (SK-HEP-1) [nM] | IC50 (SNU638) [nM] | IC50 (A549) [nM] | melting point [°C] | IC50 (DYRK1A) [nM] | IC50 (TRKA) [nM] | Ki (DYRK1B) [nM] | Ki (DYRK1A) [nM] | Ki (TRKA) [nM]
1 | Nc1ccn([C@@H]2O[C@H](CO)[C@@H](O)C2(F)F)c(=O)n1 [Gemcitabine, reference compound] |  |  |  | 200 | 1100 | 3600 | 200 | 100 | 300 |  |  |  |  |  | 
2 | Cc1nccc(-c2cn(Cc3ccccc3)c3cnccc23)n1 [AZ Dyrk1B 33, reference compound] | 50 | > 10000 |  |  |  |  |  |  |  |  | 14 | > 10000 | 50 | 28 | 
3 | COc1cc([C@@H]2c3cc4c(cc3[C@@H](O[C@@H]3O[C@@H]5CO[C@@H](C)O[C@H]5[C@H](O)[C@H]3O)[C@H]3COC(=O)[C@H]23)OCO4)cc(OC)c1O [Etoposide, reference compound] |  |  |  | 1110 | 4900 | 23400 | 910 | 410 | 360 |  |  |  |  |  | 
4 | Cc1ccc(NC(=O)Nc2cc(C(F)(F)F)ccc2F)cc1Nc1ccc2c(c1)NC(=O)/C2=C\c1ccc[nH]1 [GNF 5837, reference compound] | > 10000 | > 10000 |  |  |  |  |  |  |  |  | > 10000 | 177 |  |  | 
5 | LH 846 [reference compound] | > 10000 | 80 |  |  |  |  |  |  |  |  | > 10000 | > 10000 |  |  | 
6 | COc1ncc2cc(C(=O)Nc3cc(C(=O)NCc4cccc(Cl)c4)ccc3Cl)c(=O)[nH]c2n1 [TC-S 7004, reference compound] | 22 | > 10000 |  |  |  |  |  |  |  |  | < 10 | > 10000 | 22 |  | 
7 | COc1ccc2c(c1)[nH]c1c(C)nccc12 [Harmine, reference compound] |  |  |  |  |  |  |  |  |  |  |  | > 10000 |  |  | 

The next lines start with the values.

Row | IC50 (DYRK1B) [nM] | IC50 (CK1δ) [nM] | Ki (CK1δ) [nM] | IC50 (HCT116) [nM] | IC50 (MDA-MB-231) [nM] | IC50 (PC-3) [nM] | IC50 (SK-HEP-1) [nM] | IC50 (SNU638) [nM] | IC50 (A549) [nM] | melting point [°C] | IC50 (DYRK1A) [nM] | IC50 (TRKA) [nM] | Ki (DYRK1B) [nM] | Ki (DYRK1A) [nM] | Ki (TRKA) [nM] | Compound
8 | > 10000 | 1780 | 1780 | > 50000 | 30600 | > 50000 | 8310 | > 50000 | > 50000 | 166 to 168 | > 10000 | 393 |  |  |  | Nc1ncnc2c1c(C#CC1CC1)cn2[C@@H]1S[C@H](CO)[C@@H](O)[C@H]1O [Compound 1k, (2R,3R,4S,5R)-2-(4-Amino-5-(cyclopropylethynyl)-7H-pyrrolo[2,3-d]pyrimidin-7-yl)-5-(hydroxymethyl)tetrahydrothiophene-3,4-diol]
9 | 288 | 27 | 27 | 6350 | 8830 | 9210 | 7810 | 6320 | 7570 | 102 to 104 | 357 | 157 | 288 | 714 | 314 | Nc1ncnc2c1c(-c1ccccc1)cn2[C@@H]1S[C@H](CO)[C@@H](O)[C@H]1O [Compound 1d, (2R,3R,4S,5R)-2-(4-Amino-5-phenyl-7H-pyrrolo[2,3-d]pyrimidin-7-yl)-5-(hydroxymethyl)tetrahydrothiophene-3,4-diol]
10 | > 10000 | 1320 | 1320 | > 50000 | 29600 | > 50000 | > 50000 | > 50000 | > 50000 | 144 to 146 | > 10000 | 958 |  |  |  | CC(C)(C)C#Cc1cn([C@@H]2S[C@H](CO)[C@@H](O)[C@H]2O)c2ncnc(N)c12 [Compound 1j, (2R,3R,4S,5R)-2-(4-Amino-5-(3,3-dimethylbut-1-yn-1-yl)-7H-pyrrolo[2,3-d]pyrimidin-7-yl)-5-(hydroxymethyl)tetrahydrothiophene-3,4-diol]
11 | 1070 | 970 | 970 | > 50000 | 45500 | > 50000 | 6050 | > 50000 | > 50000 | 190 to 192 | 1260 | 293 | 1070 | 2510 | 586 | CC#Cc1cn([C@@H]2S[C@H](CO)[C@@H](O)[C@H]2O)c2ncnc(N)c12 [Compound 1h, (2R,3R,4S,5R)-2-(4-Amino-5-(prop-1-yn-1-yl)-7H-pyrrolo[2,3-d]pyrimidin-7-yl)-5-(hydroxymethyl)tetrahydrothiophene-3,4-diol]
12 | > 10000 | 910 | 910 | 30600 | 30100 | 15400 | 10300 | 27500 | 41600 | 127 to 132 | > 10000 | > 10000 |  |  |  | CCS(=O)(=O)Nc1ccc(-c2cn(C3SC(CO)C(O)C3O)c3ncnc(N)c23)cc1 (stereo not drawn) [Compound 1f, N-(4-(4-Amino-7-(3,4-dihydroxy-5-(hydroxymethyl)tetrahydrothiophen-2-yl)-7H-pyrrolo[2,3-d]pyrimidin-5-yl)phenyl)ethanesulfonamide]
13 | 86 | 77 | 77 | 560 | 310 | 200 | 220 | 470 | 970 | 110 to 112 | 112 | 474 | 86 | 224 | 948 | C=Cc1cn([C@@H]2S[C@H](CO)[C@@H](O)[C@H]2O)c2ncnc(N)c12 [Compound 1c, (2R,3R,4S,5R)-2-(4-Amino-5-vinyl-7H-pyrrolo[2,3-d]pyrimidin-7-yl)-5-(hydroxymethyl)tetrahydrothiophene-3,4-diol]
14 | > 10000 | > 10000 |  | > 50000 | > 50000 | > 50000 | > 50000 | > 50000 | > 50000 | 188 to 192 | > 10000 | > 10000 |  |  |  | Nc1ncnc2c1c(-c1ccc(N3CCS(=O)(=O)CC3)cc1)cn2C1SC(CO)C(O)C1O (stereo not drawn) [Compound 1e, 4-(4-(4-Amino-7-(3,4-dihydroxy-5-(hydroxymethyl)tetrahydrothiophen-2-yl)-7H-pyrrolo[2,3-d]pyrimidin-5-yl)phenyl)thiomorpholine 1,1-dioxide]
15 | 117 | 18 |  | 1740 | 2720 | 2480 | 1380 | 2410 | 1650 | 166 to 172 | 166 | 11 | 117 | 332 | 22 | Nc1ncnc2c1c(-c1cccs1)cn2[C@@H]1S[C@H](CO)[C@@H](O)[C@H]1O [Compound 1b, (2R,3R,4S,5R)-2-(4-Amino-5-(thiophen-2-yl)-7H-pyrrolo[2,3-d]pyrimidin-7-yl)-5-(hydroxymethyl)tetrahydrothiophene-3,4-diol]
16 | 1340 | 430 | 430 | > 50000 | > 50000 | > 50000 | > 50000 | > 50000 | > 50000 | 161 to 162 | 2980 | 573 | 1340 | 5960 | 1150 | CCC#Cc1cn([C@@H]2S[C@H](CO)[C@@H](O)[C@H]2O)c2ncnc(N)c12 [Compound 1i, (2R,3R,4S,5R)-2-(4-Amino-5-(but-1-yn-1-yl)-7H-pyrrolo[2,3-d]pyrimidin-7-yl)-5-(hydroxymethyl)tetrahydrothiophene-3,4-diol]
17 | 14 | 123 | 123 | 2160 | 3310 | 2460 | 3380 | 1950 | 1020 | 197 to 199 | 15 | 37 | 14 | 30 | 74 | Nc1ncnc2c1c(-c1ccco1)cn2[C@@H]1S[C@H](CO)[C@@H](O)[C@H]1O [Compound 1a, (2R,3R,4S,5R)-2-(4-Amino-5-(furan-2-yl)-7H-pyrrolo[2,3-d]pyrimidin-7-yl)-5-(hydroxymethyl)tetrahydrothiophene-3,4-diol]

From paper PMC8708872, “Discovery of a Novel Template, 7-Substituted 7-Deaza-4′-Thioadenosine Derivatives as Multi-Kinase Inhibitors” (Pharmaceuticals, 2021)
